Source: patent publication US20120302546A1, “NOVEL SULFAMIDES EXHIBITING NEUROPROTECTIVE ACTION AND METHODS FOR USE THEREOF” (FOX CHASE CHEMICAL DIVERSITY CENTER, INC., priority 2010, published 2012)

What was measured:
[1] = test system: MES-induced seizure spread; test: Maximal Electroshock Seizure (MES) test in mice; assay type: in vivo; conditions: Mouse MES, intraperitoneal, vehicle methylcellulose
Method: (§1) Methods to measure anticonvulsant activity: All tests were conducted by the Anticonvulsant Screening Program (ASP) of the National Institute of Neurological Disease and Stroke at the National Institutes of Health. The Maximal Electroshock Seizure (MES) or Maximal Seizure Pattern Test: The MES is a model for generalized tonic-clonic seizures (Putnam and Merritt, 1937). It is highly reproducible with consistent endpoints. The behavioral and electrographic seizures generated in this model are consistent with the human disorder. This model identifies those compounds which prevent seizure spread. In the MES test, an electrical stimulus of 0.2 s in duration (50 mA in mice and 150 mA in rat at 60 Hz) is delivered via corneal electrodes primed with an electrolyte solution containing an anesthetic agent. Mice are tested at 30 minutes and 4 hours following doses of 30, 100 and 300 mg/kg of test compound. Test compounds are administered intraperitoneally to the mice. Rats are tested at time intervals between 0.25 and 4 hours following a standard oral dose of 30 mg/kg. Abolition of the hindlimb tonic extensor component indicates the test compound's ability to inhibit MES-induced seizure spread.

[2] = test system: MES-induced seizure spread; test: Maximal Electroshock Seizure (MES) test in rats; assay type: in vivo; conditions: Rat MES, 30 mg/kg, oral, vehicle methylcellulose
Method: as §1

[3] = test system: 6 Hz corneal stimulation evoked seizures; test: 6 Hz psychomotor seizure test in mice; assay type: in vivo; conditions: Mouse 6 Hz, 100 mg/kg, intraperitoneal, vehicle methylcellulose
Method: Methods to measure anticonvulsant activity: All tests were conducted by the Anticonvulsant Screening Program (ASP) of the National Institute of Neurological Disease and Stroke at the National Institutes of Health. The 6 Hz Seizure Test: Compounds were further tested in the 6-Hz psychomotor seizure model (Barton et al., 2001). This model is used to detect seizures that may be useful for the treatment of therapy-resistant partial seizures. For this test, an alternative electrical stimulation paradigm is used with a low frequency (6 Hz), long duration (3 seconds) corneal stimulation. The seizure evoked by this low frequency stimulation is characterized by immobility, forelimb clonus, Straub tail and facial automatisms (Barton et al., 2001). Mice are tested from 15 min to 4 hours following an intraperitoneal dose of 100 mg/kg. Abolition of the clonic seizures indicates the ability of a compound to prevent partial or psychomotor seizures.

[4] = test system: Hippocampal Cultures; test: Neuroprotection from glutamate excitotoxicity, CFDA neuronal viability assay; assay type: cell-based, rat; conditions: day 20 hippocampal cultures, 5 min 30 μM glutamate, CFDA assay 24 hours after initiation of treatment (FIG. 1-3)
Method: Pharmacology: Hydroxyethyl sulfamides attenuate glutamate-mediated neuronal viability. As an example, compound II, shown above, is shown to attenuate a decrease in carboxyfluorescein diacetate (CFDA) produced by acute treatment with glutamate in FIG. 1. For these studies, day 20 hippocampal cultures derived from E18 rats were treated for 5 min with 30 μM glutamate. Following removal of the glutamate, cultures were treated with various concentrations of compound II and the CFDA neuronal viability assay was conducted 24 hours after the initiation of treatment. The dotted line labeled “control” represents the mean CFDA value for control culture receiving no treatment. The dotted line labeled “carisbamate” represents the mean CFDA value for the reference compound carisbamate, a putative neuroprotective, anticonvulsant. For the CFDA measurements, RFU is the abbreviation for relative fluorescent units. The reference anticonvulsant compound carisbamate was tested at 100 μM, as lower concentrations were ineffective.
Cell cultures: All compounds are screened with dissociated hippocampal cultures derived from embryonic day 18 rats as the primary test system. With this preparation, primary neurons are used to test for toxicity as well as neuroprotection in a highly relevant experimental system to epilepsy. In brief, hippocampal tissue are obtained commercially through Brain Bits (Springfield, Ill.) and cultures prepared as previously described by Brewer (Brewer, G. J. Serum-free B27/neurobasal medium supports differentiated growth of neurons from the striatum, substantia nigra, septum, cerebral cortex, cerebellum and dentate gyms, J. Neurosci. Res. 1995, 42, 674-683.). The hippocampal neurons are platted at low density (10,000 cell/well) in a 96-well format and maintained in serum-free medium consisting of Neurobasal Medium supplemented with B27 and GlutaMAX (Gibco). Pre-coated poly-L-lysine coated plates are used because of the preferential adherence and survival of hippocampal neurons on this matrix support.
Carboxyfluorescein (CFDA) was used a vital stain for all cell toxicity and neuroprotection studies. With the use of the CytoFluor fluorimeter, the CFDA assay was employed to assess the viability of neurons. CFDA is a dye that becomes fluorescent upon cell entry and cleavage by cytosolic esterases (Petroski, R. E.; Geller, H. M Selective labeling of embryonic neurons cultures on astrocyte monolayers with 5(6)-carboxyfluorescein diacetate (CFDA). J. Neurosci. Methods 1994, 52, 23-32.). Neuronal specificity is obtained relative to astrocytes because the cleaved dye is extruded extracellularly by glia with time, while dye in neurons remains intracellular. […] To further assess the culture responses, a propidium iodide method was used as previously described (Sarafian, T. A.; Kouyoumjian, S.; Tashkin, D.; Roth, M. D. Synergistic cytotoxicity of 9-tetrahydrocannabianol and butylated hydroxyanisole, Tox. Letters, 2002. 133, 171-179.) to measure the number of dead cells. Propidium iodide becomes fluorescent when binding to the DNA of dead cells. Cultures were treated on day 2 with the test agent and then the two assays were conducted after a […] test period. For all assays, a 96-well format was used. For the screen, log concentration-effect studies were conducted from 10 nM to 1 mM with 8 replications. The duration of the test period was five days. Cultures were given a complete change of medium prior to the initiation of the treatment period.
Potent neuroprotection is the distinguishing characteristic that separates this program's anticonvulsants from all other commercial drugs for epilepsy. The experimental details and the rationale for the implemented assays are essential in differentiating these compounds from that of others. The central objective of all neuroprotective assays was their relevancy to excitotoxicity and oxidative stress related to epilepsy. […]

[5] = test system: Hippocampal Cultures; test: Neuroprotection from glutamate excitotoxicity, propidium iodide cell death assay; assay type: cell-based, rat; conditions: Day 15 Hippocampal Cultures, 30 μM glutamate (FIG. 5)

## NS(=O)(=O)NC[C@@H](O)c1ccccc1Cl [drawing 54]
[1]; 30 mg/kg, 0.5 hr
  # animals active/# animals tested: 0/1
[1]; 100 mg/kg, 0.5 hr
  # animals active/# animals tested: 2/3
[1]; 300 mg/kg, 0.5 hr
  # animals active/# animals tested: 1/1
[2]; 0.25 hr
  # animals active/# animals tested: 1/4
[2]; 0.5 hr
  # animals active/# animals tested: 0/4
[3]; 0.25 hr
  # animals active/# animals tested: 0/4
[3]; 0.5 hr
  # animals active/# animals tested: 1/4
[3]; 1.0 hr
  # animals active/# animals tested: 1/4
[3]; 2.0 hr
  # animals active/# animals tested: 0/4

## NS(=O)(=O)NC[C@@H](O)c1ccccc1Cl [compound III]
[4]
  effect on glutamate-mediated decrease in neuronal viability (CFDA): efficacious
[5]
  effect on glutamate-mediated increase in cell death (propidium iodide): efficacious

## NS(=O)(=O)NCC(O)c1ccccc1F (stereo not shown) [drawing 55]
[1]; 30 mg/kg, 4 hr
  # animals active/# animals tested: 0/1
[1]; 100 mg/kg, 4 hr
  # animals active/# animals tested: 1/3
[1]; 300 mg/kg, 4 hr
  # animals active/# animals tested: 1/1
[2]; 1 hr
  # animals active/# animals tested: 0/4
[2]; 2 hr
  # animals active/# animals tested: 1/4
[2]; 4 hr
  # animals active/# animals tested: 2/4
[3]; 0.25 hr
  # animals active/# animals tested: 0/4
[3]; 0.5 hr
  # animals active/# animals tested: 1/4
[3]; 1.0 hr
  # animals active/# animals tested: 1/4
[3]; 2.0 hr
  # animals active/# animals tested: 1/4
[3]; 4.0 hr
  # animals active/# animals tested: 1/4
